# Measurements from patent US7645595B2, “Method of production of artificial skin” (Shiseido Company, Ltd., priority 2000, dated 2010).
# Legend:
# [1] = system: Skin Model (artificial skin); basement membrane components laminin 5, type IV collagen, type VII collagen; assay: Artificial skin culture with MMP inhibitor and matrix protein production promoting agent: H&E staining and immunostaining for LN5, IVC, VIIC (Example 2, Table 1, FIG. 2-4); type: cell-based, human; conditions: CGS27023A 10 μM, TGFa/TGFb1 10 ng/ml, versus control
# Protocol: Although the same method as Example 1 was repeated, the following substances were used as test substances. • (1) 10 μM matrix metalloproteinase inhibitor CGS27023A only; • (2) 10 μM matrix metalloproteinase inhibitor CGS27023A and 10 ng/ml of matrix […] protein production promoting agent, Transforming Growth Factor α (TGFa); • (3) 10 μM matrix metalloproteinase inhibitor CGS27023A and 10 ng/ml of matrix protein production promoting agent, Transforming Growth Factor β1 (TGFb1); • (4) 10 μM matrix metalloproteinase inhibitor CGS27023A, 10 ng/ml of matrix protein production promoting agent, Transforming Growth Factor α (TGFa) and 10 ng/ml of Transforming Growth Factor β1 (TGFb1); and • (5) culturing of a control to which none of the above were added. The formed artificial skin was stained by hematoxylin-eosin (H & E) and immunostaining (using anti-laminin 5 (LN5) antibody, anti-type IV collagen (IVC) antibody, and anti-type VII collagen (VIIC) antibody). Culturing was carried out in the same manner as above using the following plant extracts instead of the above matrix metalloproteinase inhibitor CGS27023A.
# [2] = system: artificial skin (skin model: contracted collagen gel with human dermal fibroblasts plus epidermal keratinocytes); assay: Artificial skin culture with matrix metalloproteinase inhibitor: basement membrane formation seen in cross-section (Example 1, FIG. 1); type: cell-based; conditions: cultured 2 weeks, versus control without inhibitor
# Protocol: Collagen gel was obtained by preparing 10 ml of a collagen solution of suspended fibroblasts (0.3 to 1×10^5 cells/ml) originating in human dermis (product I-AC of Koken Co., Ltd. was used for the collagen) on ice followed by gelling the collagen at 37° C. in a 60 mm Petri dish. Next, the gel was peeled from the walls of the Petri dish and the collagen gel was contracted in a CO2 incubator.
# This contracted collagen gel equivalent to dermis was placed on a metal mesh and a glass ring (inner diameter: 12 mm) was placed over this gel. 0.4 ml of a suspension of epidermal keratinocytes (1×10^6/ml) (mixed medium of KGM-DMEM containing 5% fetal calf serum (1:1)) were placed inside the glass ring to prevent leakage of liquid. After adhering keratinocytes in a CO2 incubator overnight, the ring was removed on the following day.
# After inoculating the epidermic cells, the medium was changed to that containing either (1) 10 μM CGS27023A (matrix metalloproteinase inhibitor) or (2) 300 μM MMP-inhibitor (p-NH2-Bz-Gly-Pro-D-Leu-D-Ala-NHOH (FN-437) (BBRC, 1994, 199, p. 1442-1446) (acquired from Cabbiochem. Novabiochem Corporation) (matrix metalloproteinase inhibitor)) starting in the first week, and then replaced with medium containing the same type and same concentration of matrix metalloproteinase inhibitor every 2-3 days after that and cultured for 2 weeks. […]
Molecule,Adhesion between epidermis and dermis [1],Promotion of basement membrane formation (FIG. 1) ([2]; 10 μM in medium),Promotion of basement membrane formation (FIG. 1) ([2]; 300 μM in medium)
"COc1ccc(S(=O)(=O)N(Cc2cccnc2)[C@@H](C(=O)NO)C(C)C)cc1.Cl [CGS27023A, N-hydroxy-2(R)-[[(4-methoxyphenyl)sulfonyl](3-picolyl)amino]-3-methylbutanamide hydrochloride]",adhesion between the epidermis and dermis was clear,promotion of basement membrane formation was clearly observed,
p-NH2-Bz-Gly-Pro-D-Leu-Ala-NHOH [MMP-inhibitor],,,promotion of basement membrane formation was clearly observed
